Experimental data as given in patent US8614327B2 (Vertex Pharmaceuticals Incorporated, priority 2004, dated 2013).
pEC50: −log10 of the molar value.

Target: T1, ΔF508-CFTR (Homo sapiens, UniProt P13569, DEL508-508)
T1 construct: expressed in transfected cells
Experiment: Membrane potential optical (FRET/VIPR) assay, identification of potentiator compounds
Format: cell-based
Conditions: Table 3, assay not given; for % Activity: relative efficacy
Procedure, shortened: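 Double-addition potentiator screen: compound delivered in gluconate-substituted Cl^--free medium, membrane potential followed via CC2-DMPE/DiSBAC2(3) FRET on VIPR. Cells were ΔF508-CFTR-expressing NIH3T3 mouse fibroblasts, held 2 h at 37° C. then 24 h at 27° C. before assay.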

T1 sequence (P13569 with tags, fused parts or gaps DEL508-508): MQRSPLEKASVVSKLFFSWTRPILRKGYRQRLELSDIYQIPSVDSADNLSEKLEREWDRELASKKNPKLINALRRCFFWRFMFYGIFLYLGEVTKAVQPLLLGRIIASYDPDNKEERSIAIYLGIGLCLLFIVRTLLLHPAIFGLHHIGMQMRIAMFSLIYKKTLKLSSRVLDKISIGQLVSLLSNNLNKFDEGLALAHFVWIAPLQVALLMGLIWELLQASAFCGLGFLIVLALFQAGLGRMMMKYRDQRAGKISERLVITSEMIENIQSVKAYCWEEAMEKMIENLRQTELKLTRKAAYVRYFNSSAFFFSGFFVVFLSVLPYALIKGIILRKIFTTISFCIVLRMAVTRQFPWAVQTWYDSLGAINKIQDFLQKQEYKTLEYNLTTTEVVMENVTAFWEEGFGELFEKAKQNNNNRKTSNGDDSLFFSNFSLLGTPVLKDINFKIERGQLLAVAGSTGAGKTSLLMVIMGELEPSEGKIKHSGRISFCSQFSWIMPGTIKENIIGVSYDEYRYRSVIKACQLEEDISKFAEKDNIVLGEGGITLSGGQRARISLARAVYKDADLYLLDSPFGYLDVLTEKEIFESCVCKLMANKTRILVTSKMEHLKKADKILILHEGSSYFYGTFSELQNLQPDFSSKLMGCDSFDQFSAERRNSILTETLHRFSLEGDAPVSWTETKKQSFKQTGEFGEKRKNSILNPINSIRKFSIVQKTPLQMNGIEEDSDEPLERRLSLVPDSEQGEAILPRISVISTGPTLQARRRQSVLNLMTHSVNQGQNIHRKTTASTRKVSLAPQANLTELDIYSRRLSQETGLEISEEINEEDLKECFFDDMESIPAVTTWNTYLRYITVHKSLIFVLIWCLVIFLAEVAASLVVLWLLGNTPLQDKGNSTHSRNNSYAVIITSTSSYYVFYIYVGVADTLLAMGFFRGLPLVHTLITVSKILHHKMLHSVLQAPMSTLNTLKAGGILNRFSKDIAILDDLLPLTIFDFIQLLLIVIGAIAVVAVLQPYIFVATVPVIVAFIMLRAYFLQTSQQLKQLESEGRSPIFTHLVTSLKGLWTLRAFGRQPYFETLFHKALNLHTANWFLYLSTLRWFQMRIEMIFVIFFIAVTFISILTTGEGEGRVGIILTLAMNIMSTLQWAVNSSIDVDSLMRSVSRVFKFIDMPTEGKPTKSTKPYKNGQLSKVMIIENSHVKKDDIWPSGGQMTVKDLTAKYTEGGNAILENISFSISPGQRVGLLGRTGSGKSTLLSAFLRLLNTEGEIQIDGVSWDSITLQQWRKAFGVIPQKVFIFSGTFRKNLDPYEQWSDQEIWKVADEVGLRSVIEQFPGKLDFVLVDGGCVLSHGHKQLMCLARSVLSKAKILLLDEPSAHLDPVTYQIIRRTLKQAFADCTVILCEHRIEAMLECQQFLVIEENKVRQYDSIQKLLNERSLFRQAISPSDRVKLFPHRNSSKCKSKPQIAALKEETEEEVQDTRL

| Compound | pEC50 | % Activity |
| --- | --- | --- |
| O=C(Nc1cccc(OC(F)(F)F)c1)c1c[nH]c2ccccc2c1=O [Compound 62, 4-oxo-N-[3-(trifluoromethoxy)phenyl]-1H-quinoline-3-carboxamide] | > 5.00 | ++ (between 25% to 100%) |
| Cc1ccc(C(N)=O)c(NC(=O)c2c[nH]c3ccccc3c2=O)c1 [Compound 335, N-(2-carbamoyl-5-methyl-phenyl)-4-oxo-1H-quinoline-3-carboxamide] | 4.22 to 4.60 | + (<25%) |
| COc1ccccc1Oc1ccc(C(F)(F)F)cc1NC(=O)c1c[nH]c2ccccc2c1=O [Compound 3, N-[2-(2-methoxyphenoxy)-5-(trifluoromethyl)phenyl]-4-oxo-1H-quinoline-3-carboxamide] | > 5.00 | ++ (between 25% to 100%) |
| O=C(Nc1cc2[nH]ccc2cc1Cl)c1c[nH]c2ccccc2c1=O [Compound 32, N-(5-chloro-1H-indol-6-yl)-4-oxo-1H-quinoline-3-carboxamide] | > 5.00 | ++ (between 25% to 100%) |
| O=C(Nc1ccccc1-c1ccc(Cl)c(Cl)c1)c1c[nH]c2ccccc2c1=O [Compound 85, N-[2-(3,4-dichlorophenyl)phenyl]-4-oxo-1H-quinoline-3-carboxamide] | > 5.00 | ++ (between 25% to 100%) |
| Cc1ccc(NC(=O)c2c[nH]c3ccccc3c2=O)cc1N [Compound 167, N-(3-amino-4-methyl-phenyl)-4-oxo-1H-quinoline-3-carboxamide] | 4.60 to 5.00 | ++ (between 25% to 100%) |
| CC(C)(C)OC(=O)Nc1ccc(NC(=O)c2c[nH]c3ccccc3c2=O)c(C(F)(F)F)c1 [Compound 600, tert-butyl [[4-[(4-oxo-1H-quinolin-3-yl)carbonylamino]-3-(trifluoromethyl)phenyl]amino]formate] | > 5.00 | ++ (between 25% to 100%) |

Results, then the molecule that gave them:

| pEC50 | % Activity | Compound |
| --- | --- | --- |
| > 5.00 | ++ (between 25% to 100%) | O=C(Nc1ccc(C(F)(F)F)c(O)c1)c1c[nH]c2c(Cl)cccc2c1=O [Compound 716, 8-chloro-N-[3-hydroxy-4-(trifluoromethyl)phenyl]-4-oxo-1H-quinoline-3-carboxamide] |
| > 5.00 | + (<25%) | COc1nc(NC(=O)c2c[nH]c3ccccc3c2=O)ccc1C(F)(F)F [Compound 571, N-[6-methoxy-5-(trifluoromethyl)-2-pyridyl]-4-oxo-1H-quinoline-3-carboxamide] |
|  | ++ (between 25% to 100%) | CCOC(=O)Nc1ccc(CC)c(NC(=O)c2c[nH]c3ccccc3c2=O)c1 [Compound 472, [4-ethyl-3-[(4-oxo-1H-quinolin-3-yl)carbonylamino]phenyl]aminoformic acid ethyl ester] |
| > 5.00 | ++ (between 25% to 100%) | CC(C)(C)c1cc2cc[nH]c2cc1NC(=O)c1c[nH]c2ccc(O)cc2c1=O [Compound 679, 6-hydroxy-4-oxo-N-(5-tert-butyl-1H-indol-6-yl)-1H-quinoline-3-carboxamide] |
| > 5.00 | ++ (between 25% to 100%) | CCc1cc(C(C)(C)C)c(O)cc1NC(=O)c1c[nH]c2cccc(O)c2c1=O [Compound 507, N-(2-ethyl-5-hydroxy-4-tert-butyl-phenyl)-5-hydroxy-4-oxo-1H-quinoline-3-carboxamide] |
| > 5.00 | ++ (between 25% to 100%) | O=C(Nc1cc2[nH]ccc2cc1C(F)(F)F)c1c[nH]c2cccc(O)c2c1=O [Compound 494, 5-hydroxy-4-oxo-N-[5-(trifluoromethyl)-1H-indol-6-yl]-1H-quinoline-3-carboxamide] |
| > 5.00 | +++ (>100%) | CC(C)(C)c1ccc(NC(=O)c2c[nH]c3ccccc3c2=O)c(C(C)(C)C)c1O [Compound 594, N-(3-hydroxy-2,4-ditert-butyl-phenyl)-4-oxo-1H-quinoline-3-carboxamide] |
